How the values were obtained:
Folsomia candida = conditions: chronic/long-term; duration: 28 days; reproduction
Tagia sp. = conditions: chronic/long-term; duration: 56 days; other
Mus musculus = conditions: chronic; duration: 18 months; histopathology: neoplastic
Pimephales promelas = conditions: chronic/long-term
Apis mellifera = conditions: acute, mortality
Daphnia magna = conditions: chronic/long-term; duration: 21 days
Bibionidae = conditions: chronic/long-term; duration: 28 days
Colinus virginianus = conditions: reproduction developmental; duration: 22 weeks
Oncorhynchus mykiss = conditions: acute; mortality
Typhlodromus pyri = assay: LR50; higher = less toxic; conditions: not reported; mortality

Structure (SMILES) | NOEC (Folsomia candida) [mg/kg] | NOEC (Tagia sp.) [mg/kg] | NOAEL (Mus musculus) [mg/kg-day] | NOEC (Pimephales promelas) [mg/L] | LD50 (Apis mellifera; dermal) [µg/piece] | LD50 (Apis mellifera; oral, unspecified) [µg/piece] | NOEC (Daphnia magna) [mg/L] | NOEC (Bibionidae) [mg/L] | LOAEL (Rattus norvegicus; acute, neurology) [mg/kg-day] | NOAEL (Rattus norvegicus; reproduction developmental, M, body weight) [mg/kg-day] | NOAEL (Rattus norvegicus; subchronic, duration: 90 days, oral, organ weight) [mg/kg-day] | NOEL (Colinus virginianus) [mg/kg-day] | LD50 (Oncorhynchus mykiss) [mg/L] | LR50 (Typhlodromus pyri) [g/ha]
CC(=O)C(C)(C)NC(=O)c1cc(Cl)cc(Cl)c1 [Benzamide, 3,5-dichloro-N-(1,1-dimethyl-2-oxopropyl)-] | 20 |  |  |  |  |  |  |  |  |  |  |  |  | 
C#CC(C)(C)NC(=O)c1cc(Cl)cc(Cl)c1 [Propyzamide] | 1.4 | 3.3 | 5 | 0.224 | > 100 | > 100 | 0.6 | 0.34 | 40 | 12.1 | 4.5 | 30.9 | > 4.7 | 1890

Reference: EPA's ToxValDB 9.5 (doi:10.2903/j.efsa.2016.4554)
